Source: article PMC6934657, “Transdermal delivery of nobiletin using ionic liquids” (Scientific Reports, 2019)
Values after ≈ are worked out from the molar mass of the structure shown.

Experiments:
[1] = set-up: method as in doi:10.2525/ecb.56.161, PMID 18951932; conditions: cited from earlier work
[2] = cited from earlier work
[3] = set-up: method as in PMID 30682442; conditions: cited from earlier work
[4] = In vitro skin penetration test using Franz diffusion cell; format: in vitro ADME, Yucatan micropig; conditions: 24 h
Method: Porcine skin stored at −70 °C was thawed at 37 °C for 30 min, and then cut into a circle 3.5 cm in diameter. The adipose tissue of this skin was scraped off with a razor. The skin was sandwiched between the acceptor side of a Franz diffusion cell (FDC) (PermeGear, Hellertown, PA, USA) filled with phosphate buffered saline (PBS) solution, and the donor of the FDC, and both sides of the FDC were fixed with a clip. The skin was stretched without wrinkles and the acceptor was degassed. Then, 300 μL of 1, 2, 5, 7, and 10 mg/mL NOB/PBS or NOB/CAGE were added to the donor and incubated for 24 h at 37 °C. After incubation, samples in the donor were removed and the skin was washed up to 5 times with PBS solution. The skin was removed from the FDC and punched out according to the administration area. A tape stripping method was used with ten tapes to obtain parts of the stratum corneum (SC). The remaining epidermis was scraped with a razor and separated from the dermis. NOB was eluted from these tissue samples using methanol: PBS = 1:1 for 24 h. The solutions were centrifuged at 3,000 rpm at 25 °C for 3 min and the supernatant was passed through a membrane filter (pore size: 0.20 µm, Toyo Roshi Co. Ltd.). The amount of NOB in the SC, epidermis, dermis, and acceptor was quantitatively determined by HPLC as described in Section 2.1.2. […] To compare the permeation ability of CAGE with other skin permeation reagents, additional 24-h transdermal tests were performed using 1 mg/mL NOB/diethylene glycol monoethyl ether (DGME): PBS = 1:1 (v:v) and NOB/ethanol (EtOH): […]

blood glucose level [5] = test: Hypoglycemic activity after transdermal administration to SD rats; format: in vivo; conditions: transdermal with CAGE, 10 mg/kg
Method: The hypoglycemic activity of the NOB/CAGE sample was evaluated following the same protocol used for the transdermal tests in vivo using SD rats as described in Section 2.4. A 5 mg/mL solution of PBS, NOB/PBS, or NOB/CAGE was transdermally administered to the donor area of the rats (10 mg/kg) and blood was collected from the tail vein after 1, 2, 4, 8, 12, and 24 h. Blood glucose was measured using a commercial glucose meter (ACCU-CHEK® ST Meter, ACCU-CHEK® ST Strip, Roche Diagnostics K.K., Tokyo, Japan) (n = 5).

[6] = set-up: method as in PMID 27076076; conditions: oral, 200 mg/kg; cited from earlier work
[7] = cited from earlier work; remark: listed apart in the source
[8] = Measurement of NOB solubility in CAGE; format: physicochemical; conditions: shaken at 37 °C for 48 h, HPLC
Method: An excess amount of NOB was added to CAGE in test tubes and the tubes were shaken at 37 °C for 48 h. The supernatants were then collected and filtered through a filter with a pore size of 0.20 µm (Toyo Roshi Co. Ltd., Tokyo, Japan), and the concentration of NOB was determined by high-pressure liquid chromatography (HPLC) (Shimadzu LC-2010C, Kyoto, Japan) with the following conditions: mobile phase 0.1% formic acid in water (solvent A) and acetonitrile (solvent B) (0–20 min, 52.5–75% solvent A); flow rate 1 mL/min; injection volume 5 µL; column Develosil ODS-HG-5, 4.6 mm × 150 mm, 5 µm particle size; column temperature 40 °C; UV detector wavelength 285 nm.

blood glucose level [9] = tested on: blood glucose level; set-up: method as in PMID 28337858; conditions: transdermal insulin delivery using CAGE; cited from earlier work

**Q.** Which BA in men [1] does the source give for O=c1c(O)c(-c2ccc(O)c(O)c2)oc2cc(O)cc(O)c12 [quercetin, reference compound] here?
**A.** The BA in men was 1%.

**Q.** And the Solubility in water [2]?
**A.** Its Solubility in water is 1.4 µg/mL (≈ 0.00463 mM).

**Q.** With O=c1c(O)c(-c2ccc(O)cc2)oc2cc(O)cc(O)c12 [kaempferol, reference compound] as the compound, how does the Solubility in water [2] read?
**A.** Its Solubility in water is 180 µg/mL (≈ 0.629 mM).

**Q.** And the BA [3]?
**A.** Its BA is 2%.

**Q.** With COc1ccc(-c2cc(=O)c3c(OC)c(OC)c(OC)c(OC)c3o2)cc1OC [NOB, Nobiletin] as the compound, how does the “Ratio of NOB in deeper fractions (epidermis + dermis + acceptor) to total NOB transferred to the skin” value (“Ratio of NOB in deeper fractions” for short) ([4]; 1 mg/mL NOB in 50:50 (v:v) DGME: PBS) read?
**A.** The value was 41%.

**Q.** And the “Ratio of NOB in deeper fractions” value ([4]; 1 mg/mL NOB in 50:50 (v:v) EtOH: PBS)?
**A.** The value was 54%.

**Q.** What about the “Ratio of NOB in deeper fractions” value ([4]; 1 mg/mL NOB in CAGE) of the same compound?
**A.** The value was 77%.

**Q.** What about the “Ratio of NOB in deeper fractions” value ([4]; 1 mg/mL NOB in PBS) of the same compound?
**A.** The value was 28%.

**Q.** And the “Order of amount of NOB detected in the acceptor by solvent” value ([4]; 1 mg/mL NOB)?
**A.** The value was “CAGE > EtOH: PBS > PBS > DGME”.

**Q.** What about the “Decrease in the blood glucose level over 12 h” value (blood glucose level [5]) of the same compound?
**A.** The value was “at most 34%”.

**Q.** And the “Blood glucose level accompanied with insulin injection” value [6]?
**A.** Its value is “caused a drop in the BGL”.

**Q.** What about the Weight gain [6] of the same compound?
**A.** The Weight gain was “significantly suppressed weight gain”.

**Q.** And the “Oral bioavailability in rat” value ([7]; oral administration of NOB crystals to rats, ref 14 (Fig. 1: Onoue et al.[11]))?
**A.** The value was 0.85%.

**Q.** And the “Solubility of NOB in water” value ([2]; in water, ref Onoue et al.[11])?
**A.** Its value is 16 µg/mL.

**Q.** What about the Water solubility ([2]; ref 14 (Fig. 1: Onoue et al.[11])) of the same compound?
**A.** The Water solubility was 16.2 µg/mL.

**Q.** And the solubility at 48 h [8]?
**A.** The solubility at 48 h was 7200 µg/mL (≈ 17.9 mM).

**Q.** Which “Oral BA of crystalline NOB” value ([7]; oral, 2 mg/kg) does the source give for COc1ccc(-c2cc(=O)c3c(OC)c(OC)c(OC)c(OC)c3o2)cc1OC [crystalline NOB, Nobiletin] here?
**A.** The value was 0.46%.

**Q.** With insulin as the compound, how does the “Drop in the blood glucose level over 12 h” value (blood glucose level [9]) read?
**A.** The value was ~40%.
